From PubChem BioAssay (NCI)
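All cell lines were grown in 96-well plates and treated with compound for 48 hours. GI50 marks 50% less growth. TGI: concentration producing complete growth inhibition.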

How the values were obtained:
Experiment in all cases: NCI anticancer screen, dose series, 48 h
[1] = system: T-47D breast
[2] = system: MCF7 breast
[3] = system: SN12C renal
[4] = system: NCI/ADR-RES ovarian
[5] = system: SK-MEL-28 melanoma
[6] = system: MDA-MB-231 breast
[7] = system: OVCAR-3 ovarian
[8] = system: UO-31 renal
[9] = system: HL-60(TB) leukemia
[10] = system: MDA-MB-468 breast
[11] = system: HCC-2998 colon
[12] = system: PC-3 prostate
[13] = system: UACC-257 melanoma
[14] = system: SF-539 CNS
[15] = system: SF-268 CNS
[16] = system: SR leukemia
[17] = system: ACHN renal
[18] = system: SW-620 colon
[19] = system: 786-0 renal
[20] = system: BT-549 breast
[21] = system: SK-MEL-2 melanoma
[22] = system: IGROV1 ovarian
[23] = system: CCRF-CEM leukemia
[24] = system: K-562 leukemia
[25] = system: MALME-3M melanoma
[26] = system: DU-145 prostate
[27] = system: OVCAR-8 ovarian
[28] = system: RXF 393 renal
[29] = system: SK-OV-3 ovarian
[30] = system: SF-295 CNS
[31] = system: EKVX NSCLC
[32] = system: M14 melanoma
[33] = system: NCI-H522 lung
[34] = system: LOX IMVI melanoma
[35] = system: A549 NSCLC
[36] = system: HCT-116 colon
[37] = system: SK-MEL-5 melanoma
[38] = system: SNB-19 CNS
[39] = system: A498 renal
[40] = system: SNB-75 CNS
[41] = system: TK-10 renal
[42] = system: MDA-MB-435
[43] = system: HT29 colon
[44] = system: MOLT-4 leukemia
[45] = system: NCI-H226 lung
[46] = system: RPMI-8226 leukemia
[47] = system: COLO 205 colon
[48] = system: U251 CNS
[49] = system: OVCAR-4 ovarian
[50] = system: CAKI-1 renal
[51] = system: HOP-62 NSCLC
[52] = system: OVCAR-5 ovarian
[53] = system: NCI-H460 lung
[54] = system: HOP-92 NSCLC
[55] = system: HS 578T breast
[56] = system: KM12 colon
[57] = system: UACC-62 melanoma
[58] = system: HCT-15 colon
[59] = system: NCI-H23 lung

With `CCOP(=O)(CC(F)(F)C(F)(F)F)OCC` the GI50 [1] was 2.19 µM, the TGI [1] was 7.23 µM and the GI50 [2] was 2.45 µM. For the same molecule, the TGI [2] was 12.1 µM, the GI50 [3] was 16.6 µM and the TGI [3] was 42.2 µM. It also gave a GI50 [4] of 2.31 µM, a TGI [4] of 5.95 µM and a GI50 [5] of 1.82 µM. The TGI [5] was 3.85 µM, the GI50 [6] was 3.43 µM and the TGI [6] was 12.3 µM. It also gave a GI50 [7] of 2.76 µM, a TGI [7] of 7.98 µM and a GI50 [8] of 2.82 µM. The TGI [8] was 10.9 µM, the GI50 [9] was 1.71 µM and the TGI [9] was 5.89 µM. The GI50 [10] was 1.24 µM, the TGI [10] was 2.99 µM and the GI50 [11] was 12.2 µM. It also gave a TGI [11] of 25.2 µM, a GI50 [12] of 4.6 µM and a TGI [12] of 25.6 µM. It also gave a GI50 [13] of 2.57 µM, a TGI [13] of 11.1 µM and a GI50 [14] of 2.02 µM. It also gave a TGI [14] of 4.75 µM, a GI50 [15] of 17.9 µM and a TGI [15] of 54.4 µM. It also gave a GI50 [16] of 2.4 µM, a TGI [16] of 11.5 µM and a GI50 [17] of 1.86 µM. For the same molecule, the TGI [17] was 3.55 µM, the GI50 [18] was 1.83 µM and the TGI [18] was 3.92 µM. For the same molecule, the GI50 [19] was 4.2 µM, the TGI [19] was 16.8 µM and the GI50 [20] was 4.17 µM. For the same molecule, the TGI [20] was 20.5 µM, the GI50 [21] was 17.3 µM and the TGI [21] was 39.2 µM. For the same molecule, the GI50 [22] was 18.5 µM, the TGI [22] was 38.8 µM and the GI50 [23] was 2.9 µM. It also gave a TGI [23] of 15.8 µM, a GI50 [24] of 2.62 µM and a TGI [24] of 17.9 µM. For the same molecule, the GI50 [25] was 1.83 µM, the TGI [25] was 3.62 µM and the GI50 [26] was 5.56 µM. It also gave a TGI [26] of 18.4 µM, a GI50 [27] of 3.79 µM and a TGI [27] of 55.3 µM. The GI50 [28] was 1.06 µM, the TGI [28] was 2.37 µM and the GI50 [29] was 27.4 µM. The TGI [29] was 74.8 µM, the GI50 [30] was 15.6 µM and the TGI [30] was 33.2 µM. The GI50 [31] was 3.17 µM, the TGI [31] was 12.6 µM and the GI50 [32] was 2.02 µM. For the same molecule, the TGI [32] was 5.31 µM, the GI50 [33] was 0.505 µM and the TGI [33] was 1.86 µM. The GI50 [34] was 1.78 µM, the TGI [34] was 3.91 µM and the GI50 [35] was 30.7 µM. It also gave a TGI [35] of over 100 µM, a GI50 [36] of 1.86 µM and a TGI [36] of 4.86 µM. For the same molecule, the GI50 [37] was 3.38 µM, the TGI [37] was 13.7 µM and the GI50 [38] was 26.2 µM. The TGI [38] was over 100 µM, the GI50 [39] was 19.7 µM and the TGI [39] was 37 µM. For the same molecule, the GI50 [40] was 1.95 µM, the TGI [40] was 36.7 µM and the GI50 [41] was 3.11 µM. It also gave a TGI [41] of 7.27 µM, a GI50 [42] of 3.31 µM and a TGI [42] of 14.5 µM. For the same molecule, the GI50 [43] was 2.25 µM, the TGI [43] was 4.96 µM and the GI50 [44] was 1.92 µM. It also gave a TGI [44] of 10.3 µM, a GI50 [45] of 16.5 µM and a TGI [45] of 58.2 µM. It also gave a GI50 [46] of 3.44 µM, a TGI [46] of 13.1 µM and a GI50 [47] of 1.84 µM. It also gave a TGI [47] of 3.43 µM, a GI50 [48] of 20.7 µM and a TGI [48] of 60.2 µM. It also gave a GI50 [49] of 8.98 µM, a TGI [49] of 23.9 µM and a GI50 [50] of 3.06 µM. For the same molecule, the TGI [50] was 10.6 µM, the GI50 [51] was 22.2 µM and the TGI [51] was 54.4 µM. It also gave a GI50 [52] of 17.6 µM, a TGI [52] of 32.5 µM and a GI50 [53] of 17 µM. It also gave a TGI [53] of 37.5 µM, a GI50 [54] of 3.37 µM and a TGI [54] of 10.7 µM. It also gave a GI50 [55] of 5.55 µM, a TGI [55] of 94 µM and a GI50 [56] of 17.2 µM. It also gave a TGI [56] of 33.6 µM, a GI50 [57] of 2.35 µM and a TGI [57] of 8.87 µM. The GI50 [58] was 1.56 µM, the TGI [58] was 3.73 µM and the GI50 [59] was 7.93 µM. It also gave a TGI [59] of 23.9 µM.

Work on `CN(C)CCNC(=O)OCCCCOc1cc(O)c2c(=O)cc(-c3ccccc3)oc2c1` yielded a GI50 [1] of 1.88 µM, a TGI [1] of 4.23 µM and a GI50 [2] of 1.59 µM. The TGI [2] was 3.76 µM, the GI50 [3] was 13.8 µM and the TGI [3] was 27.4 µM. It also gave a GI50 [4] of 7.37 µM, a TGI [4] of 34.2 µM and a GI50 [5] of 1.62 µM. For the same molecule, the TGI [5] was 3.1 µM, the GI50 [6] was 1.74 µM and the TGI [6] was 3.78 µM. For the same molecule, the GI50 [7] was 4.42 µM, the TGI [7] was 16.3 µM and the GI50 [8] was 4.56 µM. It also gave a TGI [8] of 16.9 µM, a GI50 [9] of 1.64 µM and a TGI [9] of 3.59 µM. The GI50 [10] was 1.78 µM, the TGI [10] was 4.16 µM and the GI50 [11] was 3.25 µM. The TGI [11] was 10.3 µM, the GI50 [12] was 4.35 µM and the TGI [12] was 17.9 µM. For the same molecule, the GI50 [13] was 1.89 µM, the TGI [13] was 3.61 µM and the GI50 [14] was 1.53 µM. For the same molecule, the TGI [14] was 2.93 µM, the GI50 [15] was 3.51 µM and the TGI [15] was 16.2 µM. The GI50 [16] was 1.95 µM, the TGI [16] was 4.16 µM and the GI50 [17] was 1.92 µM. The TGI [17] was 3.97 µM, the GI50 [18] was 2.03 µM and the TGI [18] was 4.49 µM. For the same molecule, the GI50 [19] was 2 µM, the TGI [19] was 4.72 µM and the GI50 [20] was 10.6 µM. For the same molecule, the TGI [20] was 22.7 µM, the GI50 [21] was 2.88 µM and the TGI [21] was 9.08 µM. It also gave a GI50 [22] of 15.7 µM, a TGI [22] of 29.6 µM and a GI50 [23] of 3.21 µM. It also gave a TGI [23] of 10.7 µM, a GI50 [24] of 1.96 µM and a TGI [24] of 5.98 µM. It also gave a GI50 [25] of 1.57 µM, a TGI [25] of 2.97 µM and a GI50 [26] of 3.73 µM. For the same molecule, the TGI [26] was 13.9 µM, the GI50 [27] was 10 µM and the TGI [27] was 24.5 µM. For the same molecule, the GI50 [28] was 1.64 µM, the TGI [28] was 3.35 µM and the GI50 [29] was 11.3 µM. For the same molecule, the TGI [29] was 23.7 µM, the GI50 [30] was 2.14 µM and the TGI [30] was 4.06 µM. It also gave a GI50 [31] of 7.87 µM, a TGI [31] of 20.2 µM and a GI50 [32] of 1.89 µM. The TGI [32] was 3.78 µM, the GI50 [33] was 3.68 µM and the TGI [33] was 16 µM. The GI50 [34] was 1.79 µM, the TGI [34] was 3.25 µM and the GI50 [35] was 5.26 µM. The TGI [35] was 19.3 µM, the GI50 [36] was 2.01 µM and the TGI [36] was 4.85 µM. For the same molecule, the GI50 [37] was 1.65 µM, the TGI [37] was 3.03 µM and the GI50 [38] was 6.09 µM. The TGI [38] was 20.3 µM, the GI50 [39] was 2.21 µM and the TGI [39] was 5.77 µM. It also gave a GI50 [40] of 11 µM, a TGI [40] of 24 µM and a GI50 [41] of 18.5 µM. It also gave a TGI [41] of 33.2 µM, a GI50 [42] of 2.12 µM and a TGI [42] of 4.66 µM. It also gave a GI50 [43] of 1.88 µM, a TGI [43] of 3.98 µM and a GI50 [44] of 2.25 µM. The TGI [44] was 6.24 µM, the GI50 [45] was 10.1 µM and the TGI [45] was 28.8 µM. The GI50 [46] was 2.97 µM, the TGI [46] was 9.69 µM and the GI50 [47] was 1.84 µM. It also gave a TGI [47] of 3.5 µM, a GI50 [48] of 2.31 µM and a TGI [48] of 6.74 µM. It also gave a GI50 [49] of 10.1 µM, a TGI [49] of 24.7 µM and a GI50 [50] of 3.04 µM. It also gave a TGI [50] of 12.2 µM, a GI50 [51] of 10.4 µM and a TGI [51] of 24.4 µM. The GI50 [52] was 11.8 µM, the TGI [52] was 24.2 µM and the GI50 [53] was 3.01 µM. For the same molecule, the TGI [53] was 10.1 µM, the GI50 [54] was 4.35 µM and the TGI [54] was 19.1 µM. The GI50 [55] was 4.35 µM, the TGI [55] was 23.4 µM and the GI50 [56] was 6.09 µM. The TGI [56] was 20.4 µM, the GI50 [57] was 1.78 µM and the TGI [57] was 3.43 µM. The GI50 [58] was 2.25 µM, the TGI [58] was 5.8 µM and the GI50 [59] was 7.23 µM. For the same molecule, the TGI [59] was 20.4 µM.
